Data published in PMC4210869, “Functional Phylogenetics Reveals Contributions of Pleiotropic Peptide Action to Ligand-Receptor Coevolution” (Scientific Reports, 2014).
Where two headings read alike, the source gives them in different places. Where no end group is shown, it is not given here.

Assays:
Assay type in all cases: cell-based
TcPKr-A = target: T1, TcPKr-A (Tribolium castaneum, UniProt A0ACM8QKC5); test: Aequorin luminescence (calcium mobilization) assay, CHO cells transiently expressing TcPKr-A
T1 sequence (A0ACM8QKC5 1-530): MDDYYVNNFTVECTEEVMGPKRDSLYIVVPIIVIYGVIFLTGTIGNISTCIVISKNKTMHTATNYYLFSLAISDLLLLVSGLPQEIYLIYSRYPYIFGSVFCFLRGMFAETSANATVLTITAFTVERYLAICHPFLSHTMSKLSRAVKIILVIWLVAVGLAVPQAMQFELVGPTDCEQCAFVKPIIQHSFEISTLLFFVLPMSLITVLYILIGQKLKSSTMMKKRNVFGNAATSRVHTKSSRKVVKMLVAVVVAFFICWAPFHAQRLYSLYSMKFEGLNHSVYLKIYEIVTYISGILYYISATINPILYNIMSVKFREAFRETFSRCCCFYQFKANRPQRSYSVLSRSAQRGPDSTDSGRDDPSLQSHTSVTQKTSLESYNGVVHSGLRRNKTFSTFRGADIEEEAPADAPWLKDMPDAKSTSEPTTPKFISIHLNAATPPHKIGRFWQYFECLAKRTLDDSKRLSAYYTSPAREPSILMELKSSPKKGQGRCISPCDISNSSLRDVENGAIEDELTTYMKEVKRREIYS
Description: (§1) We characterized all PRXamide GPCRs through assays of 9 endogenous ligands. Ligand activities were quantified by detection of luminescence responses from CHO cells transiently transfected with GPCR (see Methods and Materials section for details). Dose-response curves were generated by logistic fitting of the log transformed ligand concentrations ranging from 0.01 nM to 10 μM (Fig. 3). All results, shown as averages, were replicated in three independent experiments (see Supplementary Data 1 for details).
(§2) T. castaneum was kept in a 30°C growth chamber under a 16 : 8 (L : D) photoperiod and fed on a diet of wheat flour and Brewer's yeast (10 : 1). Peptides from T. castaneum were synthesized by Genescript (Piscataway, NJ). For culture of Chinese Hamster Ovary cells (CHO), DMEM/F12 medium, fetal bovine serum (FBS), Fungizone and Penicillin/Streptomycin, and coelenterazine for aequorin functional assay were purchased from Gibco cell culture at Life Technologies^TM (Grand Island, NY). TransIT-LT1 Transfection Reagent (Mirus Bio LLC, Madison, WI) was used for transient transfections. […]
(§3) cDNAs for full GPCR ORFs were inserted into the expression vector pcDNA3.1(+) (Invitrogen) or pcDNA5/FRT (Invitrogen). Methods for expression in Chinese Hamster Ovary (CHO) cell supplemented with aequorin and G-α16 and the assays were performed as previously described. Briefly, cells were transfected using the TransIT-LT1 transfection reagent (Mirus Bio LLC). Thirty hours after the transfection, the cells were collected and preincubated with the coelenterazine (Invitrogen) prior to the functional assay. A serial dilution (10 folds) of the 9 endogenous ligands were applied to the cells. The luminescence caused by the intracellular calcium mobilization were measured in continuous 20 seconds in every half-second interval. […] Based on which, a dose response curve was generated for each receptor by logistic fitting in Origin 8.6 (OriginLab).

TcPKr-B = target: T2, TcPKr-B (Tribolium castaneum, UniProt A0A0A7H8P0); test: Aequorin luminescence (calcium mobilization) assay, CHO cells transiently expressing TcPKr-B
T2 sequence (A0A0A7H8P0 1-560): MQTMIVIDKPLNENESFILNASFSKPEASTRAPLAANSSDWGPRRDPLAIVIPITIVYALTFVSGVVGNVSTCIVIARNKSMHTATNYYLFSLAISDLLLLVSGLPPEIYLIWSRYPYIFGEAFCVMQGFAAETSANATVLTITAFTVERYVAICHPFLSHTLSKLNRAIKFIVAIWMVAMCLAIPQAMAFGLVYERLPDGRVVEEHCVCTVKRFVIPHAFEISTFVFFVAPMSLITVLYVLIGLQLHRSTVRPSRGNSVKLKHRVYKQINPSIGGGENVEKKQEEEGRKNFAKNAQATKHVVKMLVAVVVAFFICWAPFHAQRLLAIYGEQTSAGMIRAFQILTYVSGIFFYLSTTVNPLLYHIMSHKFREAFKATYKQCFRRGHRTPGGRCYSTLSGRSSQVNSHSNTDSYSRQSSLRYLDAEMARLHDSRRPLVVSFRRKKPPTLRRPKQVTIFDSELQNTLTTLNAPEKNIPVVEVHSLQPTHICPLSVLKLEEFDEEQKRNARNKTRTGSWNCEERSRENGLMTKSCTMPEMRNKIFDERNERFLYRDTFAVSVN
Description: as §1, §2, §3

TcPKr-C = target: T3, TcPKr-C (Tribolium castaneum, UniProt A0ACM8QKC4); test: Aequorin luminescence (calcium mobilization) assay, CHO cells transiently expressing TcPKr-C; conditions: for Receptor activation, in words: text summary of dose-response data
T3 sequence (A0ACM8QKC4 1-483): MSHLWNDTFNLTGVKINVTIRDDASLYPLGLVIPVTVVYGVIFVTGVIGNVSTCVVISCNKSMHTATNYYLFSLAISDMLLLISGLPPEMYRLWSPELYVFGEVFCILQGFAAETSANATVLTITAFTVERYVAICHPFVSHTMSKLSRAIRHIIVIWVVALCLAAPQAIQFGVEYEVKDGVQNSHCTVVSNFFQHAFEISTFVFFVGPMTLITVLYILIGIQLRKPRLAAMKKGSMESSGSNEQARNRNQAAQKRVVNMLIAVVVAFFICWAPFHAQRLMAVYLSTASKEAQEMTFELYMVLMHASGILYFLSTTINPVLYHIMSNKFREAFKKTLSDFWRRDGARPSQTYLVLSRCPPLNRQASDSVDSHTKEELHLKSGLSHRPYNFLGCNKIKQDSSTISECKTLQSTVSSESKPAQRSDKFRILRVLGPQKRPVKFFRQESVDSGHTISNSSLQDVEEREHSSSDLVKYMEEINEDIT
Description: as §1, §2, §3

TcCAPAr = target: T4, TcCAPAr (Tribolium castaneum, UniProt A0A0A7H7W3); test: Aequorin luminescence (calcium mobilization) assay, CHO cells transiently expressing TcCAPAr
T4 sequence (A0A0A7H7W3 1-418): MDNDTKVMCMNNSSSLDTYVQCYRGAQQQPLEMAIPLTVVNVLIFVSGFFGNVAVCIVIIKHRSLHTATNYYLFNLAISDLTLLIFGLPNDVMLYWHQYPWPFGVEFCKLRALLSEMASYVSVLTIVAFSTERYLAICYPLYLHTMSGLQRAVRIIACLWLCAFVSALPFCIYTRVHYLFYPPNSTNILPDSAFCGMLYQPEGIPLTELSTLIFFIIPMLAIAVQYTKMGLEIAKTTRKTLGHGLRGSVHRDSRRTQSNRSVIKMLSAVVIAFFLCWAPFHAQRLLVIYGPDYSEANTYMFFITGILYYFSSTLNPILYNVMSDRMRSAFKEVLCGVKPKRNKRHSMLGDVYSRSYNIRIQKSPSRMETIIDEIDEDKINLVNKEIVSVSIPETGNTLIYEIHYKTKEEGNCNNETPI
Description: as §1, §2, §3

[1] = Supplementary data 1, fitted value incl. extrapolations beyond 10 μM, unit inferred, nM by Fig. 3, read-out: EC50s
[2] = EC50 (bound given in μM), Fig. 3, above highest tested concentration 10 μM
[3] = EC50 [nM], Fig. 3, CHO cells with aequorin and G-α16, logistic fit, ligand 0.01 nM to 10 μM, average of three independent experiments

ENYVLKAAKNVPRI-NH2 [ETH-1] was tested, and the EC50 (TcPKr-A; [1]) was 9840 nM, the EC50 (TcPKr-B; [2]) was > 10 µM and the EC50 (TcPKr-B; [1]) was 120 µM. For the same substance, the EC50 (TcPKr-C; [2]) was > 10 µM and the EC50 (TcCAPAr; [1]) was 150 nM.

For FFMKASKSVPRI-NH2 [ETH-2], the EC50 (TcPKr-A; [1]) was 6300 nM, the EC50 (TcPKr-B; [2]) was > 10 µM and the EC50 (TcPKr-B; [1]) was 21.8 µM. For the same substance, the EC50 (TcPKr-C; [2]) was > 10 µM, the EC50 (TcPKr-C; [1]) was 502 µM and the EC50 (TcCAPAr; [1]) was 88.8 nM.

HSSPFSPRL-NH2 [PK2/PBAN-3] gave an EC50 (TcPKr-A; [1]) of 7.7 nM, an EC50 (TcPKr-B; [1]) of 0.0287 µM and an EC50 (TcPKr-C; [1]) of 0.001 µM. For the same substance, the EC50 (TcCAPAr; [2]) was > 10000 nM and the EC50 (TcCAPAr; [1]) was 36600 nM.

In the case of HVVNFTPRL-NH2 [PK2/PBAN-1], the EC50 (TcPKr-A; [1]) is reported as 21 nM, the EC50 (TcPKr-B; [1]) is reported as 0.0119 µM and the EC50 (TcPKr-C; [1]) is reported as 0.0014 µM. The EC50 (TcCAPAr; [2]) was > 10000 nM and the EC50 (TcCAPAr; [1]) was 16100 nM.

For NKLASVYALTPSLRV-NH2 [CAPA-1], the EC50 (TcPKr-A; [2]) was > 10000 nM, the EC50 (TcPKr-A; [1]) was 30700 nM and the EC50 (TcPKr-B; [2]) was > 10 µM. The EC50 (TcPKr-B; [1]) was 338 µM, the EC50 (TcPKr-C; [2]) was > 10 µM and the EC50 (TcCAPAr) was 3.7 nM.

For PGANSGGMWFGPRL-NH2 [PK1/DH-1], the EC50 (TcPKr-A; [1]) was 6.2 nM, the EC50 (TcPKr-B; [1]) was 0.161 µM and the EC50 (TcPKr-C; [2]) was > 10 µM. For the same substance, the “Receptor activation, in words” value (TcPKr-C) was “not”, the EC50 (TcCAPAr; [3]) was 6970 nM and the EC50 (TcCAPAr; [1]) was 1070 nM.

In the case of RIGKMVSFPRI-NH2 [CAPA-2], the EC50 (TcPKr-A; [2]) is reported as > 10000 nM, the EC50 (TcPKr-A; [1]) is reported as 12800 nM and the EC50 (TcPKr-B; [2]) is reported as > 10 µM. The EC50 (TcPKr-B; [1]) was 62.5 µM, the EC50 (TcPKr-C; [2]) was > 10 µM and the EC50 (TcCAPAr; [1]) was 5.8 nM.

Substance SPPFAPRL-NH2 [PK2/PBAN-2] has an EC50 (TcPKr-A; [1]) of 17.5 nM, an EC50 (TcPKr-B; [1]) of 0.0032 µM and an EC50 (TcPKr-C; [1]) of 0.013 µM. The EC50 (TcCAPAr; [3]) was 1070 nM and the EC50 (TcCAPAr; [1]) was 6970 nM.

“TPHESSVPNERNDDSKETYFWFGPRL-NH2 [PK1/DH-2]” showed an EC50 (TcPKr-A; [1]) of 92.6 nM, an EC50 (TcPKr-B; [1]) of 0.0658 µM and an EC50 (TcPKr-C; [1]) of 0.576 µM. The “Receptor activation, in words” value (TcPKr-C) was “activated by high concentrations” and the EC50 (TcCAPAr; [1]) was 1070 nM.
